The test system of series [1] is C. difficile strain 4013. Nature of the series: Hamster CDAD induced by oral C. difficile challenge plus clindamycin. The format is in vivo, Syrian hamsters. The note with it: for animals surviving the study: all doses. On the procedure: In a second study, animals were challenged orally with a bacterial suspension of C. difficile and then administered a single s.c. injection of 100 mg/kg clindamycin. Oral treatment with ramoplanin or vancomycin at 25-50-100 mg/kg or metronidazole at 100-200-400 mg/kg started 24 hours after clindamycin administration and lasted for five days. Hamsters were weighed and observed every 24 hours for evidence of diarrhea or moribund conditions, and the cecal contents were analyzed for C. difficile toxin A (ELISA).

Series [2] has as its system C. difficile. Nature of the series: Hamster model of clindamycin-induced C. difficile-associated colitis. The format is in vivo, Syrian hamsters. As to conditions: oral 50 mg/kg/day for 5 days; for survival rate: from 24 hours after clindamycin 100 mg/kg s.c., monitored 20 days. On the procedure: To evaluate the in vivo efficacy of ramoplanin in the treatment of C. difficile-associated colitis, ramoplanin was tested in a hamster model of clindamycin (CL)-induced colitis in comparison with both vancomycin and metronidazole. Animals were treated with a single subcutaneous (s.c.) injection of 100 mg/kg clindamycin, and after 24 hours received oral ramoplanin or vancomycin at 50 mg/kg/day for 5 days. Animals were observed daily for the presence or absence of diarrhea. Necropsies were performed on some animals that died during the experiment, and cecal contents were assayed for C. difficile toxin A. Hamsters were monitored for 20 days, and the cumulative mortality during this period was recorded (FIG. 1). […] C. difficile toxin A was always detected in these animals. […] All hamsters that died had gross pathologic evidence of enterocolitis and cecal contents were positive for Toxin A.

The test system of series [3] is C. difficile strain 4013. Nature of the series: Hamster CDAD, different durations of treatment. The note with it: ramoplanin 50 mg/kg oral daily for 3 days versus vancomycin 50 mg/kg for 5 days. In kind it is in vivo, Syrian hamsters. How it is done:
Hamsters were inoculated with C. difficile on day 0 and then administered 100 mg/kg clindamycin s.c. on day 1. Hamsters received daily oral doses of 50 mg/kg ramoplanin or vancomycin for 3 or 5 days starting on day 2.

For series [4], the system named is C. difficile. As to the kind of experiment: Recovery of C. difficile spores or vegetative cells from clindamycin-treated animals. In kind it is in vivo, hamster. The note with it: after single dose of clindamycin and treatment. On the procedure:
In another study, animals were administered a single dose of clindamycin and then treated with either vancomycin or ramoplanin.

Series [5] is described as follows: Single oral dose study in healthy male volunteers: absorption and fecal recovery. The format is in vivo, human. On the procedure: The absorption, tolerability, and recovery of ramoplanin following single dose oral administration were investigated in male volunteers. Ramoplanin was administered as an aqueous solution at a dose of 100, 200, 500, or 1000 mg to fasting subjects. Serum samples were obtained prior to drug administration of ramoplanin and 0.5, 1, 2, 3, 6, 9, 12, 24, 48, 72, and 96 hours after treatment. Urine samples were collected prior to administration of ramoplanin and over the periods 0-3,3-6, 6-12, 12-24, 24-48, 48-72, and 72-96 hours after dosing. Fecal samples were collected prior to dosing and over the periods 0-16 (Day 1), 16-40 (Day 2), 40-64 (Day 3), 64-88 (Day 4), and 88-96 (Day 5) hours after dosing. A microbiological assay employing Bacillis subtilis ATCC 6633 as the test organism was used to determine ramoplanin concentrations in serum, urine, and feces. The limits of quantitation for this assay were 0.02 μg/mL in serum, 0.012 μg/mL in urine, and 3 μg/g in feces. Tolerability was assessed on the basis of clinical signs and symptoms and the results of blood and urine laboratory tests.

Series [6] in a line: Multiple oral dose study in healthy male volunteers: absorption and fecal concentrations. In kind it is in vivo, human. How it is done: Healthy male volunteers were administered 200, 400, or 800 mg ramoplanin twice-a-day, for ten consecutive days. The predetermined dose was reconstituted in 5 mL water per vial, mixed with 50 mL of sweetened, aromatized solution, and immediately administered orally to the subjects.
No absorption from the human gastrointestinal tract was observed.

The subject of series [7] is Gram-positive bacteria (staphylococci, streptococci, enterococci). Nature of the series: Multiple dose study, antibacterial activity on stool microflora: Gram-positive bacteria. In kind it is in vivo, human. On the procedure:
(§1) The antibacterial activity of ramoplanin on the stool microflora was assessed in a subset of the subjects. Microbial concentrations (i.e., the number of organisms per gram of fecal matter) were determined at the following time points: Day −4 (pre-treatment), Days 4 and 10 (treatment), and Days 7 and 24 (follow-up). Tolerability and absorption were also investigated.

The subject of another series is Clostridium spp. As to the kind of experiment: Multiple dose study, antibacterial activity on stool microflora: Clostridium spp. The format is in vivo, human. On the procedure:
as §1

For series [8], the system named is Gram-negative bacteria (enteric bacteria and Bacteroides spp.) or yeast. As to the kind of experiment: Multiple dose study, antibacterial activity on stool microflora: Gram-negative bacteria and yeast. The format is in vivo, human. How it is done: as §1
Series [9] can be described thus: In vitro interaction of ramoplanin with human intestinal contents. An excerpt: The in vitro interaction of ramoplanin with human intestinal contents was studied. […] The binding and the subsequent release of ramoplanin from feces would likely result in long-lasting concentrations in the intestinal tract.
The subject of the next series is VRE. Nature of the series: Multiple dose study in asymptomatic carriers of intestinal VRE. The format is in vivo, human. As to conditions: for patients remaining VRE free: Day 14 (seven days after cessation). On the procedure:
Patients identified as asymptomatic carriers of VRE were administered placebo or one of two dosages (100 mg, 400 mg) of ramoplanin BID (twice daily) for seven days. Patients were assessed by rectal swab on Days 7, 14, and 21 to determine the presence or absence of VRE. On Days 45 and 90, stool samples were analyzed for long-term effects of ramoplanin on the recurrence of, or reinfection with, VRE. All VRE isolates were tested for susceptibility to ramoplanin.

This note sets out measurements from patent US7317001B2, “Use of ramoplanin to treat diseases associated with the use of antibiotics” (priority 2002, dated 2008).

Turning to `Cc1ncc([N+](=O)[O-])n1CCO` [metronidazole], the “animals surviving the study” value in the series on C. difficile strain 4013 [1] (oral for five days) was “No animals treated with vancomycin or metronidazole survived the study”. For the same compound, in the series with C. difficile strain 4013 [1] (oral for five days, ramoplanin or vancomycin 25-50-100 mg/kg, metronidazole 100-200-400 mg/kg), the prolonged survival stood at 9 days.
For the compound ramoplanin, the “prolonging survival and protecting animals from death” value in the series with C. difficile [2] is on record as “highly effective”. This compound also showed a survival rate in the series on C. difficile [2] of 80%. Besides, the “survival at the end of observation period” value in the series with C. difficile strain 4013 [1] (100 mg/kg oral for five days) is recorded as 20%. In addition, the “time of death compared to vancomycin-treated animals” value with C. difficile strain 4013 [1] (oral for five days) is recorded as “delayed compared to that of vancomycin-treated animals”. In addition, the “efficacy by duration of treatment” value with C. difficile strain 4013 [3] is listed as “more effective than vancomycin administration for 5 days”. Also, the “recovery of C. difficile spores or vegetative cells” value with C. difficile [4] is listed as “No C. difficile spores or vegetative cells were recovered”. Also, the “mean cumulative recovery in feces, of the administered dose” value in [5] (100 mg single oral dose) was determined as 67.7%; in series [5] (200 mg single oral dose), 48.5%; in [5] (500 mg single oral dose), 52.8%; in series [5] (1000 mg single oral dose), 46.4%. Besides, the “mean maximum concentration in feces” value worked out at 214 µg/g in [5] (100 mg single oral dose), 287 µg/g in [5] (200 mg single oral dose), 1655 µg/g in series [5] (500 mg single oral dose) and 1835 µg/g in series [5] (1000 mg single oral dose). Moreover, the “range of cumulative recovery in feces” value was 55.7-84% in series [5] (100 mg single oral dose), 39.3-56.5% in [5] (200 mg single oral dose), 41.3-79.6% in series [5] (500 mg single oral dose) and 39.9-58.4% in [5] (1000 mg single oral dose). Also, the “range of maximum concentrations in feces” value in series [5] (100 mg single oral dose) fell in the range of 148 to 278 µg/g; in series [5] (200 mg single oral dose) it was 164 to 454 µg/g; in series [5] (500 mg single oral dose), 737 to 3316 µg/g; in series [5] (1000 mg single oral dose), 1336 to 3154 µg/g. For the same compound, in series [5] (fourth day of study, single oral dose), the “subjects with ramoplanin still detectable in feces” value is on record as 17 of 24. In series [5] (single oral dose, not dose dependent), the “time of maximum concentration and maximum percentage recovery in feces” value is on record as “Day 2”. Further, in series [5] (single oral doses up to 1000 mg and multiple oral doses 200, 400 or 800 mg BID for 10 days, bioassay and HPLC), the “detection in serum/plasma or urine” value is reported as “not detected”. Further, in series [6] (200, 400 or 800 mg twice-a-day for ten days), the “absorption from the human gastrointestinal tract” value is “No absorption”. Moreover, in series [6] (Day 1 and 5 and pooled urine up to 72-96 after the last dose), the urine levels result is “No levels were found in urine”. The average fecal concentration stood at 827 µg/g in series [6] (Day 3, 200 mg twice-a-day); 1742 µg/g in series [6] (Day 3, 400 mg twice-a-day); 1901 µg/g in [6] (Day 3, 800 mg twice-a-day); 949 µg/g in series [6] (Day 10, 200 mg twice-a-day); 1417 µg/g in [6] (Day 10, 400 mg twice-a-day); 2647 µg/g in series [6] (Day 10, 800 mg twice-a-day). Besides, the serum levels result in series [6] (Days 1, 5 and 10, hour 0.5, 1, 2, 3, 6, 9 and 12 after the morning dose) is on record as “no serum levels of ramoplanin were detected”. In addition, in series [6] (after ten days of twice-a-day dosing), the fecal concentrations post-treatment entry is “remained detectable in some subjects four days post-treatment”. The “cumulative recovery in feces, of the administered dose” value in [6] (up to Day 4 post-treatment) is given as 25%. In addition, in [7] (all doses (200, 400 or 800 mg BID), during the 10-day regimen), the “Gram-positive colony counts in feces” value was “undetectable levels”. Moreover, in series [7] (by Day 10, all subjects), the “concentrations of staphylococci, streptococci and enterococci in stool” value is on record as “below the level of detection”. The “effect on Gram-positive bacteria of the stool” value in [7] (first measurement on Day 4) is recorded as “marked effect”. Further, in the series on Clostridium spp. (multiple dose, ten days), the “clostridial load in the two subjects carrying ramoplanin- and vancomycin-resistant Clostridium spp. (C. rectum and C. bejerinckii)” value was “no variation in the clostridial load”. The “subjects with Clostridium spp. concentration reduced below detectable levels” value in the series with Clostridium spp. (multiple dose, ten days) is 10 of 12. In the series on Clostridium spp. (pre- or post-treatment), the “ramoplanin- or vancomycin-resistant C. difficile strains in stool” value was “No ramoplanin- or vancomycin-resistant strain of C. difficile was detected”. Besides, the “activity against Gram-negative flora in feces” value in series [8] (200, 400 or 800 mg BID for 10 days) was “not effective”. In addition, the “effect on Gram-negative bacteria (enteric bacteria and Bacteroides spp.) or yeast of the stool” value in series [8] (multiple dose, ten days) is given as “no effect”. Moreover, in [9], the “binding to solid components of feces” value is “bind reversibly to solid components of feces”. In addition, the “microbiological activity in feces” value in series [9] is “microbiologically active in feces”. In the series on VRE (100 mg or 400 mg BID for seven days), the “suppression of intestinal VRE (primary efficacy variable)” value was “effectively suppressed intestinal VRE”. Besides, the “patients with no detectable VRE” value in the series with VRE (Day 7, 100 mg BID for seven days, 17 of 21 patients) was determined as 81.0%; with VRE (Day 7, 400 mg BID for seven days, 18 of 20 patients), 90.0%. Besides, the “patients remaining VRE free” value was 28.6% in the series with VRE (100 mg BID, 6 of 21 patients) and 41.2% in the series with VRE (400 mg BID, 7 of 17 patients). For the same compound, the “number of VRE-free patients” value with VRE (Day 21) was “comparable among all treatment groups”.
As for `CN[C@H](CC(C)C)C(=O)N[C@H]1C(=O)N[C@@H](CC(N)=O)C(=O)N[C@H]2C(=O)N[C@H]3C(=O)N[C@H](C(=O)N[C@H](C(=O)O)c4cc(O)cc(O)c4-c4cc3ccc4O)[C@H](O)c3ccc(c(Cl)c3)Oc3cc2cc(c3O[C@@H]2O[C@H](CO)[C@@H](O)[C@H](O)[C@H]2O[C@H]2C[C@](C)(N)[C@H](O)[C@H](C)O2)Oc2ccc(cc2Cl)[C@H]1O` [vancomycin, reference compound], in the series with C. difficile [2], the “prolonging survival and protecting animals from death” value is given as “highly effective”; the survival rate was found to be 20%. Also, the “animals surviving the study” value in the series on C. difficile strain 4013 [1] (oral for five days) was “No animals treated with vancomycin or metronidazole survived the study”. Further, the “recovery of C. difficile spores or vegetative cells” value with C. difficile [4] is recorded as “C. difficile spores were recovered from some of the animals”.
